Earlier results in patent US20080031951A1, “Compositions and methods for the inhibition of phospholipase A2” (priority 2005, published 2008).

Columns and labels:
colitis = settings: rats, dextran sulfate- and trinitrobenzene sulfonic acid-induced
[1] = test system: intestine injury following ischemia and reperfusion; settings: rats, oral administration
sepsis and organ failure = settings: humans with sepsis and organ failure
[2] = biological target: T1, porcine pancreatic group IB sPLA2 / M-type receptor (Sus scrofa, UniProt P00592); settings: mouse cells expressing the M-type receptor; read-out: IC50, block of binding of porcine pancreatic group IB sPLA2 to M-type receptor
T1 construct: host or cells: mouse cells expressing the M-type receptor

[3] = biological target: group X sPLA2 / M-type receptor; settings: mouse cells expressing the M-type receptor; read-out: IC50, block of binding of group X sPLA2 to M-type receptor
[4] = test system: PGE2 production in rat gastric epithelial cells; settings: induced by TGF-α and IL-1, rat gastric epithelial cells
septic shock = settings: LPS injection, wild-type mice
[5] = test system: release of thromboxane A2 triggered by exogenously added hGIIA; settings: guinea pig BAL fluids containing macrophages, eosinophils and epithelial cells
sPLA2 activity = settings: guinea pig model of ARDS
toxoplasmosis = settings: injection, murine toxoplasmosis model
hyperalgesia = settings: lumbar intrathecal administration, 3 rat models of hyperalgesia
hGIIA [6] = biological target: T2, hGIIA (Homo sapiens, UniProt P14555); design: host or cells: transgenic mice overexpressing hGIIA, blood; settings: intravenous administration, transgenic mice overexpressing hGIIA
hGIIA [7] = biological target: T2, hGIIA; settings: more potent than LY311727
ear edema = settings: mice, tetracenoylphorbol-13-acetate induced
mGIIA = mGIIA (Mus musculus, UniProt P31482)
mGIID = mGIID (Mus musculus, UniProt Q9WVF6)
mGIIE = mGIIE (Mus musculus, UniProt Q9QUL3)
mGV = mGV (Mus musculus, UniProt P97391)
mGX = mGX (Mus musculus, UniProt Q9QXX3)
pleurisy = settings: rat, carageenin-induced pleurisy

T2 sequence (P14555 21-144): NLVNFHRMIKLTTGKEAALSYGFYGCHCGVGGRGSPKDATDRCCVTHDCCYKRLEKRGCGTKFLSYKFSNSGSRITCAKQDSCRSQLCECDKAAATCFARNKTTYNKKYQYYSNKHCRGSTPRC
mGV, sequence (P97391 21-137): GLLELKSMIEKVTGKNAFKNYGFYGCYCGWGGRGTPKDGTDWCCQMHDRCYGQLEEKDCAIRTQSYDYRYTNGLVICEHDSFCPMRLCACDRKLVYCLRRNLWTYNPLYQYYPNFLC
mGIID, sequence (Q9WVF6 20-144): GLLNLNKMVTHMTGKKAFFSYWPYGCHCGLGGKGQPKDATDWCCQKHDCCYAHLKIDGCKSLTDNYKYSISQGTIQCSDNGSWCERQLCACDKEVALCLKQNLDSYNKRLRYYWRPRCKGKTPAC
mGX, sequence (Q9QXX3 29-151): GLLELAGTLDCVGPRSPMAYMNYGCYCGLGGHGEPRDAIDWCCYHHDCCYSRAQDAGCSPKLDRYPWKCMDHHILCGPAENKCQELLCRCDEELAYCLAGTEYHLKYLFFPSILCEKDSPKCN
mGIIE, sequence (Q9QUL3 20-142): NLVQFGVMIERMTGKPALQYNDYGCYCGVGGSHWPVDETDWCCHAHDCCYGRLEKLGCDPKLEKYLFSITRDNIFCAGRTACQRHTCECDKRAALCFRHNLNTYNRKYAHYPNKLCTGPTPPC
T1 sequence (P00592 23-146): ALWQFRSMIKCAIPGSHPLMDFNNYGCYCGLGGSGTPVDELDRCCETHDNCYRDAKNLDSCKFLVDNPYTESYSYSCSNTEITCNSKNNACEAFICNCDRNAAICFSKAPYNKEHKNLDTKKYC
mGIIA, sequence (P31482 22-146): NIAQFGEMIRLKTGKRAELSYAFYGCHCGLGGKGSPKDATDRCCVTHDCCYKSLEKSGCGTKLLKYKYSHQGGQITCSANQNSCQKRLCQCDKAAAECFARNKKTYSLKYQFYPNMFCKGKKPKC

O=C(O)CC[C@@H](Cc1ccc(OCc2ccccc2)cc1)NC(=O)CCCCCCc1ccccc1 [5-(4-benzyloxyphenyl)-4s-(7-phenylheptanoylamino)-pentanoic acid]
protection from colitis (colitis): protected rats | protection of intestine from ischemia and reperfusion injury [1]: preserved rats intestine from injury

CCc1c(C(=O)C(N)=O)c2c(OCC(=O)[O-])cccc2n1Cc1ccccc1.[Na+] [S-5920/LY315920Na]
clinical outcome versus placebo (sepsis and organ failure): no significant differences

CCc1c(C(=O)C(N)=O)c2c(OCC(=O)O)cccn2c1Cc1ccccc1-c1ccccc1 [indoxam]
IC50 [2]: 130 nM | IC50 [3]: 900 nM | PGE2 production [4]: inhibited | septic shock (septic shock): attenuated

CCc1c(CC(N)=O)c2cc(OCCCP(=O)(O)O)ccc2n1Cc1ccccc1 [LY311727]
inhibition of release of thromboxane A2 [5]: able to inhibit | inhibition of sPLA2 activity induced by lipopolysaccharides (sPLA2 activity): could also inhibit | mortality (toxoplasmosis): earlier mortality | inflammation-related symptoms (hyperalgesia): attenuated all the inflammation-related symptoms observed | PLA2 catalytic activity in blood (hGIIA [6]): loss of PLA2 catalytic activity in blood

Cc1c(C(=O)C(N)=O)c2c(OCC(=O)O)cccc2n1Cc1ccccc1-c1ccccc1 [Me-indoxam]
potency to inhibit hGIIA relative to LY311727 (hGIIA [7]): about 20 fold

CCc1c(C(=O)C(N)=O)c2c(OCC(=O)OC)cccc2n1Cc1ccccc1 [LY333013]
protection from colitis (colitis): protected rats | effect on rheumatoid arthritis pathology, intravenous (rheumatoid arthritis; administered intravenously): positive impacts on the pathology | effect on rheumatoid arthritis pathology, oral (rheumatoid arthritis; orally distributed, patients with rheumatoid arthritis): significant reduction of the pathology during the first week of trial, but the benefits were lost thereafter | tolerability (asthma; in these patients): well tolerated | benefit on inhaled allergen challenge (asthma; subjects with asthma): failed to show any benefit

CCCCCCCCCCCC(=O)c1c(O)c(C(=O)CCCCCCCCCCC)c(O)c(C2CC(c3ccc(O)cc3)Oc3cc(O)ccc32)c1O (stereo not shown) [YM-26734]
ear edema (ear edema): reduced | inhibition of mGIIA (mGIIA): potent inhibitor | inhibition of mGIID (mGIID): potent inhibitor | inhibition of mGIIE (mGIIE): potent inhibitor | inhibition of mGV (mGV): potent inhibitor | inhibition of mGX (mGX): potent inhibitor | accumulation of exudate fluid and leukocytes (pleurisy): significantly decreased
